# Assay results as given in US8524194B2, “Radiolabelled MMP selective compounds” (Academisch Medisch Centrum Bij de Universiteit van Amsterdam, priority 2008, dated 2013).
# Key:
# MMP-2 = target: T1, MMP-2 (Homo sapiens, UniProt P08253); test: in vitro MMP inhibition, MMP-2; type: biochemical; details: preliminary results
# T1 sequence (P08253 110-660): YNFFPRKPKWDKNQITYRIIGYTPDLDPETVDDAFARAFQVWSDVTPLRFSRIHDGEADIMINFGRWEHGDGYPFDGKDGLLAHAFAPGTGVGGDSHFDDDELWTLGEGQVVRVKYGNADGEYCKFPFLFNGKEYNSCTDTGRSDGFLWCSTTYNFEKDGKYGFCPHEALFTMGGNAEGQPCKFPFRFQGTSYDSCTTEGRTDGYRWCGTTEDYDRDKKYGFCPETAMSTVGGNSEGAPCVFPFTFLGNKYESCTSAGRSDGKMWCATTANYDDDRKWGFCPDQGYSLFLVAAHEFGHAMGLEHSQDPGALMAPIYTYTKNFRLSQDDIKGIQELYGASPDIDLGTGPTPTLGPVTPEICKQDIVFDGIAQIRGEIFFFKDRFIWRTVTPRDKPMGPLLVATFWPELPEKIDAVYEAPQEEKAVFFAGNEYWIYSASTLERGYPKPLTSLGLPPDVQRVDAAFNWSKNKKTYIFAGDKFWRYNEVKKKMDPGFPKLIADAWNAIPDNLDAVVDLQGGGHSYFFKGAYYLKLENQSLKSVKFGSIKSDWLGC
# MMP-1 = target: T2, MMP-1 (Homo sapiens, UniProt P03956); test: in vitro MMP inhibition, MMP-1; type: biochemical; details: preliminary results
# T2 sequence (P03956 100-469): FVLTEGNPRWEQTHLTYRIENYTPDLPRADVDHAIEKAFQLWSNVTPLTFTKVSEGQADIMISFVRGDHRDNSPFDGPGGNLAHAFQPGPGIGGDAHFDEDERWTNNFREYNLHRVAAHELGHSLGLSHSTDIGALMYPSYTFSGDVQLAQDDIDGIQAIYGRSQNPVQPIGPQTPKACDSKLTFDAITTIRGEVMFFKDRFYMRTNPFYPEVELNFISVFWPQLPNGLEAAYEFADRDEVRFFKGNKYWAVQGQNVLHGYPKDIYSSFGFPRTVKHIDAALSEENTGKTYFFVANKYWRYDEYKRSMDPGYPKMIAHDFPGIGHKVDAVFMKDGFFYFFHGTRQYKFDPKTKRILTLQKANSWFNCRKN
# MMP-9 = MMP-9 (Homo sapiens, UniProt P14780); test: in vitro MMP inhibition, MMP-9; type: biochemical; details: preliminary results
# [1] = tissue biodistribution after intravenous administration; type: in vivo, CL57/BL6 mice; details: i.v.
# Procedure: Because the in vitro studies gave promising results, preliminary in vivo studies were performed using the CL57/BL6 mice (8 weeks old). The tissue distribution of [^123I]8 (which is representative for the radioisotopes with alternative halogens), after intravenous administration, was determined at three time points. […] This is regular pharmacokinetic behaviour of a radiotracer.
# The extended biodistribution studies were performed using the CL57/BL6 mice (8 weeks old). Here the tissue distribution of [^123I]8, after intravenous administration was determined at 9 time points (up to 24 hours p.i.).
# [2] = system: atherosclerotic plaques (MMP-2); test: binding to atherosclerotic plaques in the aortic sinus, storage phosphor imaging; type: in vivo; details: ApoE−/− mice on Western Type diet, i.v., three hours after injection, FIG. 3
# Procedure: Four month old ApoE−/− mice were given a Western Type diet (cat nr. 4021.06; Arie Blok Diervoeding, Woerden, the Netherlands), during one month to stimulate atherogenesis. On the last day of the experiment the radiolabeled MMP-2 antagonist was given by intravenous injection. Three hours after injection, the mice were harvested and the aortic sinus area was analysed overnight using a storage phosphor imaging technique for binding of the MMP2 antagonist.
# [3] = CL57/BL6 mice 8 weeks old, three time points, FIG. 1
# MMP-9, sequence (P14780 94-707, species assumed): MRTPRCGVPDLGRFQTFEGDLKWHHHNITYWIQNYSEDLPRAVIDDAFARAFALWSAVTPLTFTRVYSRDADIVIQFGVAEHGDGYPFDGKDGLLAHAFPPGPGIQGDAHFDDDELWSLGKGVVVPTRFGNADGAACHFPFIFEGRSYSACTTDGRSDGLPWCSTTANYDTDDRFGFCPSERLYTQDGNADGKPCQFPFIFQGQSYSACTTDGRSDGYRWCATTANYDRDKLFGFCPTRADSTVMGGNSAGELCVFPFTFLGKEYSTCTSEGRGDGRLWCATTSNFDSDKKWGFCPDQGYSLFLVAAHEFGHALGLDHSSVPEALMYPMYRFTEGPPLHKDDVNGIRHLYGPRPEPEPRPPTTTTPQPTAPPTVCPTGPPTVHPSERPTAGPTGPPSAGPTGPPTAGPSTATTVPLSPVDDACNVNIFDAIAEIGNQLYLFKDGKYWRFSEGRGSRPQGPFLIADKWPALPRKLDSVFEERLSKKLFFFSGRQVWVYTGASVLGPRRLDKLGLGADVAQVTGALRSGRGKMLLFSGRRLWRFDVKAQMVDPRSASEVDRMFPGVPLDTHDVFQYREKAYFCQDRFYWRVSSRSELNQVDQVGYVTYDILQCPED
SMILES,IC50 (MMP-2) [nM],IC50 (MMP-1) [nM],IC50 (MMP-9) [nM],"liver uptake [1, 3]","route of excretion [1, 3]","thyroid uptake (de-iodination in vivo) [1, 3]","re-uptake in liver and kidney ([1]; CL57/BL6 mice, 9 time points up to 24 hours p.i., FIG. 2)",radioactivity in the aortic sinus [2]
"O=C(O)CN(CC(=O)NO)S(=O)(=O)c1ccc(Oc2ccccc2)cc1 [Compound 6a, {[4-Phenoxy-benzenesulphonyl]-hydroxycarbamoylmethyl-amino}-acetic acid]",1.89 ± 1.11,1670 ± 980,4.31 ± 2.06,–,–,–,–,–
"O=C(O)CN(CC(=O)NO)S(=O)(=O)c1ccc(Oc2ccc(Br)cc2)cc1 [Compound 6d, {[4-(4-Bromo-phenoxy)-benzenesulphonyl]-hydroxycarbamoylmethyl-amino}-acetic acid]",0.87 ± 0.4,910 ± 560,1.95 ± 1.1,–,–,–,–,–
"O=C(O)CN(CC(=O)NO)S(=O)(=O)c1ccc(Oc2ccc(I)cc2)cc1 [Compound 6e, {[4-(4-Iodo-phenoxy)-benzenesulphonyl]-hydroxycarbamoylmethyl-amino}-acetic acid]",7.64 ± 1.43,1320 ± 790,1.61 ± 1.41,–,–,–,–,–

# Now from value to compound, other results behind:
IC50 (MMP-2) [nM],IC50 (MMP-1) [nM],IC50 (MMP-9) [nM],"liver uptake [1, 3]","route of excretion [1, 3]","thyroid uptake (de-iodination in vivo) [1, 3]",SMILES,"re-uptake in liver and kidney ([1]; CL57/BL6 mice, 9 time points up to 24 hours p.i., FIG. 2)",radioactivity in the aortic sinus [2]
0.13 ± 0.03,4690 ± 2220,0.27 ± 0.15,–,–,–,"O=C(O)CN(CC(=O)NO)S(=O)(=O)c1ccc(Oc2ccc(F)cc2)cc1 [Compound 6b, {[4-(4-Fluoro-phenoxy)-benzenesulphonyl]-hydroxycarbamoylmethyl-amino}-acetic acid]",–,–
–,–,–,taken up intensively into the liver,excreted mainly via the urinary tract,very low uptake in the thyroid,"O=C(O)CN(CC(=O)NO)S(=O)(=O)c1ccc(Oc2ccc([123I])cc2)cc1 [[^123I]8, {[4-(4-[^123I]Iodophenoxy)-benzenesulphonyl]-hydroxycarbamoylmethyl-amino}-acetic acid]",A little re-uptake was observed in the liver and kidney after 3 and 6 hours respectively,Increased radioactivity was observed in the aortic sinus of the heart
